Numbers after ± are expanded uncertainties.
Settings: Liquid, Closed cell (Static) method

Q: For `FCF` [difluoromethane], which “vapor or sublimation pressure” value (258.15 K) is on record?
A: 488.1 ± 2.6 kPa

Q: What about the “vapor or sublimation pressure” value (273.15 K) of the same compound?
A: 814 ± 3.3 kPa

Q: What about the “vapor or sublimation pressure” value (293.15 K) of the same compound?
A: 1474.6 ± 4.8 kPa

Q: For `COC` [dimethyl ether], which “vapor or sublimation pressure” value (258.15 K) is on record?
A: 152.9 ± 2.1 kPa

Q: What about the “vapor or sublimation pressure” value (273.15 K) of the same compound?
A: 266.8 ± 2.2 kPa

Q: And the “vapor or sublimation pressure” value (293.15 K)?
A: 509.3 ± 2.7 kPa

Reference: the NIST ThermoML archive (doi:10.1021/je049789+)
